Literature values as cited in patent publication US20060281749A1, “Method for treating glaucoma IV B” (priority 2000, published 2006).

Assays:
Rhesus monkeys [1] = settings: drug treated vs. control eye, baseline and pilocarpine-stimulated conditions
Rhesus monkeys [2] = settings: accommodative responses to i.m. pilocarpine

Cc1sc[n+](CC(=O)c2ccccc2)c1C.[Cl-] [4,5-dimethyl-3-(2-oxoethyl-phenethyl) thiazolium chloride]
improvement in ophthalmologic function (increase in outflow facility) (Rhesus monkeys [1]): improvement has been illustrated | Improvement in accommodation (Rhesus monkeys [2]): Improvement in accommodation has been illustrated
